Experimental data as given in the supplement of paper PMC8617591.

Assays:
[1] = tested on: Mycobacterium tuberculosis Erdman (autoluminescent); assay: AUC25, normalised area under dose response up to IC25 (fraction (0-1)); higher = more potent at low dose
Method: (§1)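 DiaMOND equipotent two-drug combination dose responses against autoluminescent M. tuberculosis Erdman in 8 in vitro models. Read-out is OD600, or luminescence for the intracellular and dormancy models, normalised to untreated wells. Hill-fit Einf, AUC25 and GRinf are potency metrics; FIC50 and FIC90 are Loewe-additivity fractional inhibitory concentrations, given as log2 (negative = synergy). Replicates are averaged.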

[2] = tested on: Mycobacterium tuberculosis Erdman (autoluminescent); assay: Einf, fitted maximum growth inhibition of combination (fraction); higher = stronger maximal inhibition
Method: as §1

[3] = tested on: Mycobacterium tuberculosis Erdman (autoluminescent); assay: FIC90 (Loewe) at 90% inhibition (log2); higher = more antagonistic
Method: as §1

[4] = tested on: Mycobacterium tuberculosis Erdman (autoluminescent); assay: GRinf, maximum normalised growth rate inhibition (unitless (-1 to 1)); higher = less effect (negative = killing)
Method: as §1

[5] = tested on: Mycobacterium tuberculosis Erdman (autoluminescent); assay: FIC50 (Loewe) at 50% inhibition (log2); higher = more antagonistic
Method: as §1

COc1nc2ccc(Br)cc2cc1[C@@H](c1ccccc1)[C@@](O)(CCN(C)C)c1cccc2ccccc12 [bedaquiline] + CC(=O)NC[C@H]1CN(c2ccc(N3CCOCC3)c(F)c2)C(=O)O1 [linezolid]
Details | AUC25, [1] | Einf, [2] | FIC50, [5] | FIC90, [3] | GRinf, [4]
in vitro model: acidic pH 5.7, time point: constant (~7 days, model-specific) | 0.0967 | 0.859 | -0.0767 | – | -0.481
in vitro model: acidic pH 5.7, time point: terminal (~4-5 doublings, model-specific) | 0.0907 | 0.973 | 0.322 | 0.271 | -0.338
in vitro model: intracellular J774, time point: constant = terminal | – | 0.779 | – | – | 0.0692

Details | AUC25, [1] | Einf, [2] | FIC50, [5] | FIC90, [3] | GRinf, [4]
in vitro model: butyrate, time point: constant (~7 days, model-specific) | 0.0836 | 0.935 | 0.413 | -0.0357 | -0.0894
in vitro model: butyrate, time point: terminal (~4-5 doublings, model-specific) | 0.0548 | 0.955 | 0.268 | 0.0422 | -0.102
in vitro model: cholesterol 0.05 mM, time point: constant (~7 days, model-specific) | 0.153 | 0.803 | 0.123 | – | -0.345
in vitro model: cholesterol 0.05 mM, time point: terminal (~4-5 doublings, model-specific) | 0.147 | 0.945 | -0.0301 | 1.01 | -0.326
in vitro model: cholesterol-high 0.2 mM, time point: constant (~7 days, model-specific) | 0.12 | 0.99 | -0.127 | 0.76 | -0.87
in vitro model: cholesterol-high 0.2 mM, time point: terminal (~4-5 doublings, model-specific) | 0.121 | 1 | -0.334 | 0.414 | -0.851
in vitro model: dormancy (butyrate + nitrate, low O2), time point: constant (~7 days, model-specific) | 0.0774 | 0.933 | 0.344 | 0.554 | 0.113
in vitro model: dormancy (butyrate + nitrate, low O2), time point: terminal (~4-5 doublings, model-specific) | 0.0484 | 0.984 | 0.546 | 0.263 | -0.0845
in vitro model: standard 7H9 glycerol, time point: constant = terminal | 0.0721 | 0.961 | 0.142 | 0.0991 | -0.106
in vitro model: valerate, time point: constant (~7 days, model-specific) | 0.104 | 0.901 | 1.02 | 1.36 | -0.0681
in vitro model: valerate, time point: terminal (~4-5 doublings, model-specific) | 0.067 | 0.947 | 0.743 | 0.916 | -0.0615

COc1nc2ccc(Br)cc2cc1[C@@H](c1ccccc1)[C@@](O)(CCN(C)C)c1cccc2ccccc12 [bedaquiline] + NC(=O)c1cnccn1 [pyrazinamide]
Details | AUC25, [1] | Einf, [2] | FIC50, [5] | FIC90, [3] | GRinf, [4]
in vitro model: acidic pH 5.7, time point: constant (~7 days, model-specific) | 0.0806 | 0.84 | -0.282 | -1.27 | -0.398
in vitro model: acidic pH 5.7, time point: terminal (~4-5 doublings, model-specific) | 0.0795 | 0.985 | -0.0485 | -0.613 | -0.351
in vitro model: intracellular J774, time point: constant = terminal | – | 0.99 | – | 0.411 | -0.387

Details | AUC25, [1] | Einf, [2] | FIC50, [5] | FIC90, [3] | GRinf, [4]
in vitro model: butyrate, time point: constant (~7 days, model-specific) | 0.124 | 0.969 | 0.033 | 0.896 | -0.595
in vitro model: butyrate, time point: terminal (~4-5 doublings, model-specific) | 0.106 | 0.991 | 0.262 | 1.12 | -0.941
in vitro model: cholesterol 0.05 mM, time point: constant (~7 days, model-specific) | 0.101 | 0.746 | – | – | -0.259
in vitro model: cholesterol 0.05 mM, time point: terminal (~4-5 doublings, model-specific) | 0.0985 | 0.949 | 0.282 | – | -0.43
in vitro model: cholesterol-high 0.2 mM, time point: constant (~7 days, model-specific) | 0.0781 | 0.978 | 0.168 | – | -0.543
in vitro model: cholesterol-high 0.2 mM, time point: terminal (~4-5 doublings, model-specific) | 0.0705 | 1 | 0.224 | 0.208 | -0.654
in vitro model: dormancy (butyrate + nitrate, low O2), time point: constant (~7 days, model-specific) | 0.0588 | 0.919 | -1.06 | -1.22 | 0.131
in vitro model: dormancy (butyrate + nitrate, low O2), time point: terminal (~4-5 doublings, model-specific) | 0.0543 | 0.98 | -0.504 | -0.991 | -0.121
in vitro model: standard 7H9 glycerol, time point: constant = terminal | 0.072 | 0.943 | -0.45 | – | -0.0583
in vitro model: valerate, time point: constant (~7 days, model-specific) | 0.0845 | 0.896 | 0.247 | – | -0.0105
in vitro model: valerate, time point: terminal (~4-5 doublings, model-specific) | 0.057 | 0.943 | 0.318 | 0.391 | 0.0136

COc1nc2ccc(Br)cc2cc1[C@@H](c1ccccc1)[C@@](O)(CCN(C)C)c1cccc2ccccc12 [bedaquiline] + COc1c(N2C[C@@H]3CCCN[C@@H]3C2)c(F)cc2c(=O)c(C(=O)O)cn(C3CC3)c12 [moxifloxacin]
Details | AUC25, [1] | Einf, [2] | FIC50, [5] | FIC90, [3] | GRinf, [4]
in vitro model: acidic pH 5.7, time point: constant (~7 days, model-specific) | 0.111 | 0.834 | 0.282 | – | -0.5
in vitro model: acidic pH 5.7, time point: terminal (~4-5 doublings, model-specific) | 0.0707 | 0.974 | 0.69 | 0.144 | -0.382
in vitro model: intracellular J774, time point: constant = terminal | – | 0.975 | – | 0.878 | -0.309

Details | AUC25, [1] | Einf, [2] | FIC50, [5] | FIC90, [3] | GRinf, [4]
in vitro model: butyrate, time point: constant (~7 days, model-specific) | 0.092 | 0.966 | 0.816 | 0.849 | -0.175
in vitro model: butyrate, time point: terminal (~4-5 doublings, model-specific) | 0.059 | 0.981 | 0.823 | 0.833 | -0.131
in vitro model: cholesterol 0.05 mM, time point: constant (~7 days, model-specific) | 0.112 | 0.777 | 0.158 | – | -0.237
in vitro model: cholesterol 0.05 mM, time point: terminal (~4-5 doublings, model-specific) | 0.0888 | 0.951 | 0.528 | 0.279 | -0.314
in vitro model: cholesterol-high 0.2 mM, time point: constant (~7 days, model-specific) | 0.0699 | 0.968 | 0.333 | 0.255 | -0.699
in vitro model: cholesterol-high 0.2 mM, time point: terminal (~4-5 doublings, model-specific) | 0.0477 | 1 | 0.532 | 0.271 | -0.644
in vitro model: dormancy (butyrate + nitrate, low O2), time point: constant (~7 days, model-specific) | 0.0664 | 0.921 | 0.814 | 0.437 | 0.176
in vitro model: dormancy (butyrate + nitrate, low O2), time point: terminal (~4-5 doublings, model-specific) | 0.0916 | 0.982 | 0.702 | 1.39 | -0.143
in vitro model: standard 7H9 glycerol, time point: constant = terminal | 0.105 | 0.993 | 0.0351 | 0.704 | -0.102
in vitro model: valerate, time point: constant (~7 days, model-specific) | 0.0901 | 0.911 | 0.469 | – | -0.123
in vitro model: valerate, time point: terminal (~4-5 doublings, model-specific) | 0.0647 | 0.966 | 0.485 | 0.622 | -0.0943
